Converted amounts (≈) assume the structure as drawn.

For this assay, the system named is MCF7. Briefly: Cytotoxicity against Homo sapiens (human) MCF7 cells after 48 hr by SRB assay. In kind it is functional, cell-based. The settings on record: MCF7, 48 h. (In general: The SRB assay estimates cell density from bound dye.)
Usually IC50 stands for the concentration that gives 50% inhibition. In turn, `N#Cc1c(-c2ccccc2)cc(Cl)n2c1nc1ccc(C(=O)O)cc12` yielded a half-inhibitory concentration (IC50) of 3.58 µg/mL (≈ 10.3 µM).

`Cc1c(CCCl)c(Cl)n2c(nc3ccc(Cl)cc32)c1C#N` displayed an IC50 of 7.09 µg/mL (≈ 20.9 µM).

As to `Cc1c(CCCl)c(Cl)n2c(nc3ccc(C(=O)O)cc32)c1C#N`, the 50% inhibitory concentration (IC50) came out at 9.07 µg/mL (≈ 26 µM).

In turn, `Cc1cc(N2CCN(c3ccccc3F)CC2)n2c(nc3ccc(Cl)cc32)c1C#N` yielded an IC50 of 5.72 µg/mL (≈ 13.6 µM).

Consider `Cc1cc(N2CCN(c3ccccc3F)CC2)n2c(nc3ccc(C(=O)O)cc32)c1C#N`, for which the IC50 was found to be 12.6 µg/mL (≈ 29.3 µM).

Take `N#Cc1c(-c2ccccc2)cc(N2CCN(c3ccccc3F)CC2)n2c1nc1ccc(Cl)cc12`: the IC50 was found to be 10.4 µg/mL (≈ 21.6 µM).

Molecule `N#Cc1c(-c2ccccc2)cc(N2CCN(c3ccccc3F)CC2)n2c1nc1ccc(C(=O)O)cc12` gave a concentration for half-maximal inhibition (IC50) of 17.6 µg/mL (≈ 35.9 µM).

Consider `Cc1c(CCN2CCN(c3ccccc3F)CC2)c(N2CCN(c3ccccc3F)CC2)n2c(nc3ccc(Cl)cc32)c1C#N`, for which the IC50 came to 14 µg/mL (≈ 22.4 µM).

Molecule `Cc1c(CCN2CCN(c3ccccc3F)CC2)c(N2CCN(c3ccccc3F)CC2)n2c(nc3ccc(C(=O)O)cc32)c1C#N` showed a half-inhibitory concentration (IC50) of 9.9 µg/mL (≈ 15.6 µM).

Molecule `Cc1cc(=O)n2c([nH]c3ccc(Cl)cc32)c1C#N` gave an IC50 of 3.43 µg/mL (≈ 13.3 µM).

As for `Cc1cc(=O)n2c([nH]c3ccc(C(=O)O)cc32)c1C#N`, the half-inhibitory concentration (IC50) turned out to be 14.7 µg/mL (≈ 55 µM).

With `N#Cc1c(-c2ccccc2)cc(=O)n2c1[nH]c1ccc(Cl)cc12`, the IC50 came out at 3.58 µg/mL (≈ 11.2 µM).

Molecule `N#Cc1c(-c2ccccc2)cc(=O)n2c1[nH]c1ccc(C(=O)O)cc12` came in with a 50% inhibitory concentration (IC50) of 3.99 µg/mL (≈ 12.1 µM).

Molecule `Cc1c(CCO)c(=O)n2c([nH]c3ccc(Cl)cc32)c1C#N` registered an IC50 of 14.6 µg/mL (≈ 48.5 µM).

In the case of `Cc1c(CCO)c(=O)n2c([nH]c3ccc(C(=O)O)cc32)c1C#N`, half-maximal inhibition (IC50) required 10.5 µg/mL (≈ 33.9 µM).

Molecule `Cc1cc(Cl)n2c(nc3ccc(Cl)cc32)c1C#N` registered an IC50 of 8.61 µg/mL (≈ 31.2 µM).

The molecule `Cc1cc(Cl)n2c(nc3ccc(C(=O)O)cc32)c1C#N` came in with a 50% inhibitory concentration (IC50) of 12.8 µg/mL (≈ 44.9 µM).

`N#Cc1c(-c2ccccc2)cc(Cl)n2c1nc1ccc(Cl)cc12` had a half-inhibitory concentration (IC50) of 3.89 µg/mL (≈ 11.5 µM).

Values taken from ChEMBL document CHEMBL3045437, “Synthesis of potential anticancer derivatives of pyrido[1,2-a]benzimidazoles” (Med Chem Res, 2012).
